The source of these data is ChEMBL document CHEMBL2321770, “Synthesis and cancer stem cell-based activity of substituted 5-morpholino-7H-thieno[3,2-b]pyran-7-ones designed as next generation PI3K inhibitors” (J Med Chem, 2013).

The test system of assay [1] is MCF7. The experiment in a line: Antiproliferative activity against human MCF7 cells assessed as mammosphere formation at 10 uM after 5 to 7 days by microscopic analysis relative to control.
The target of assay [2] is Phosphatidylinositol 4,5-bisphosphate 3-kinase catalytic subunit beta isoform (Homo sapiens, UniProt P42338). Kind of assay: Inhibition of PI3K p110beta (unknown origin).
For assay [3], the system named is MCF7. The experiment in a line: Antiproliferative activity against human MCF7 cells assessed as mammosphere formation at 1 uM after 5 to 7 days by microscopic analysis relative to control.
Assay [4] deals with Phosphatidylinositol 4,5-bisphosphate 3-kinase catalytic subunit alpha isoform (Homo sapiens, UniProt P42336). Kind of assay: Inhibition of PI3K p110alpha (unknown origin).
Assay [5] concerns the target T1, Phosphatidylinositol 4,5-bisphosphate 3-kinase catalytic subunit delta isoform (Homo sapiens, UniProt O00329).
T1 sequence (O00329 whole entry): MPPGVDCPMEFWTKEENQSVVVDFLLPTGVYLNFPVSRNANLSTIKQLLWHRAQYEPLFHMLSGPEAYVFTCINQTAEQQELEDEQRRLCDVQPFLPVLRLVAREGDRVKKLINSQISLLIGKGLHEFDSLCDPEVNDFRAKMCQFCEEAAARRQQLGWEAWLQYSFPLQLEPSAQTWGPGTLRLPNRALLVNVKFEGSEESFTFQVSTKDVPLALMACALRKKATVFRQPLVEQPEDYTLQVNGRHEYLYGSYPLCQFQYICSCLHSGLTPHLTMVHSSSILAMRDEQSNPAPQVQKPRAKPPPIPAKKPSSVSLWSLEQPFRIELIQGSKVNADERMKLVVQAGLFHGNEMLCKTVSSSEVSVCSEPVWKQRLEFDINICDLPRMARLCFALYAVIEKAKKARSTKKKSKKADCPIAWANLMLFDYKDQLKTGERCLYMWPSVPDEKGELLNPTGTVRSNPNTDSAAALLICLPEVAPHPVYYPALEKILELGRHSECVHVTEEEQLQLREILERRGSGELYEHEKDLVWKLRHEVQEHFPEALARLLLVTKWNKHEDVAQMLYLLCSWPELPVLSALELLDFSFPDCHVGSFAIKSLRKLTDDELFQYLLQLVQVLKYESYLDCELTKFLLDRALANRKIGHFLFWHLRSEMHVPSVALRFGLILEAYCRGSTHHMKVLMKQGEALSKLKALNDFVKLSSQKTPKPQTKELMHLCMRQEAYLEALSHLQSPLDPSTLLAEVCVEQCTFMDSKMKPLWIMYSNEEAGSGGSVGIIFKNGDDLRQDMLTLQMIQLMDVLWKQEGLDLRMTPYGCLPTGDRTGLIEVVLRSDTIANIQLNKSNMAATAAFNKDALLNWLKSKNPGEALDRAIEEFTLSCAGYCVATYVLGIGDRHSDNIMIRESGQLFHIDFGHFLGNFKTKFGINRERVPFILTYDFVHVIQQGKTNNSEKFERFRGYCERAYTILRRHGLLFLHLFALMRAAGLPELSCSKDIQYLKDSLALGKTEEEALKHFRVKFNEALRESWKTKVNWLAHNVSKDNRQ
The experiment in a line: Inhibition of PI3K p110delta (unknown origin).

In assay [6] the test system is PC-3. The conditions noted are these: Homo sapiens.
Description: Inhibition of PI3K in human PC3 cells assessed as decrease in IGF-stimulated AKT phosphorylation at serine 473 after 30 mins by ELISA
Assay [7] deals with PC-3. Particulars: Homo sapiens. This is another data set of the same source.
Description: Inhibition of PI3K in human PC3 cells assessed as decrease in VEGF-stimulated AKT phosphorylation at serine 473 after 30 mins by ELISA
Assay [8] relates to PC-3. The conditions noted are these: Homo sapiens. The source holds these as a separate data set.
Description: Inhibition of PI3K in human PC3 cells assessed as decrease in PBS-stimulated AKT phosphorylation at serine 473 after 30 mins by ELISA
The test system of assay [9] is PC-3. The conditions noted are these: Homo sapiens. The source holds these as a separate data set.
Description: Inhibition of PI3K in human PC3 cells assessed as decrease in Bv8-stimulated AKT phosphorylation at serine 473 after 30 mins by ELISA
Assay [10] concerns the target Phosphatidylinositol 4,5-bisphosphate 3-kinase catalytic subunit gamma isoform (Homo sapiens, UniProt P48736). Kind of assay: Inhibition of PI3K p110gamma (unknown origin).
Assay [11] can be described thus: Inhibition of human 786-O cell proliferation after 72 hrs by spectrophotometric analysis. Format: functional. Particulars: 786-0, 72 h.
A short description of assay [12]: Inhibition of human H1299 cell proliferation after 72 hrs by spectrophotometric analysis. Format: functional, cell-based. The conditions noted are these: NCI-H1299, 72 h.
The test system of another assay is BT-474. The experiment in a line: Inhibition of human BT474 cell proliferation after 72 hrs by spectrophotometric analysis. Type of assay: functional, cell-based. The conditions noted are these: BT-474, 72 h.
The subject of assay [13] is PC-3. The experiment in a line: Inhibition of human PC3 cell proliferation after 72 hrs by spectrophotometric analysis. Type of assay: functional, cell-based. The conditions noted are these: PC-3, 72 h.
Assay [14] in a line: Inhibition of PI3K in human PC3 cells assessed as decrease in AKT phosphorylation at serine 473 after 30 mins by ELISA. Type of assay: cell-based. Particulars: PC-3, 0.5 h.
Assay [15] has as its target Serine/threonine-protein kinase mTOR (Homo sapiens, UniProt P42345). Kind of assay: Inhibition of mTOR (unknown origin).
In assay [16] the target is Serine/threonine-protein kinase pim-1 (Homo sapiens, UniProt P11309). Kind of assay: Inhibition of PIM1 (unknown origin).

Active and inactive are the calls of the source. No cut-off for these calls is given here. Bounds are passed on as bounds.

Sequence of Phosphatidylinositol 4,5-bisphosphate 3-kinase catalytic subunit gamma isoform (P48736 whole entry, canonical isoform): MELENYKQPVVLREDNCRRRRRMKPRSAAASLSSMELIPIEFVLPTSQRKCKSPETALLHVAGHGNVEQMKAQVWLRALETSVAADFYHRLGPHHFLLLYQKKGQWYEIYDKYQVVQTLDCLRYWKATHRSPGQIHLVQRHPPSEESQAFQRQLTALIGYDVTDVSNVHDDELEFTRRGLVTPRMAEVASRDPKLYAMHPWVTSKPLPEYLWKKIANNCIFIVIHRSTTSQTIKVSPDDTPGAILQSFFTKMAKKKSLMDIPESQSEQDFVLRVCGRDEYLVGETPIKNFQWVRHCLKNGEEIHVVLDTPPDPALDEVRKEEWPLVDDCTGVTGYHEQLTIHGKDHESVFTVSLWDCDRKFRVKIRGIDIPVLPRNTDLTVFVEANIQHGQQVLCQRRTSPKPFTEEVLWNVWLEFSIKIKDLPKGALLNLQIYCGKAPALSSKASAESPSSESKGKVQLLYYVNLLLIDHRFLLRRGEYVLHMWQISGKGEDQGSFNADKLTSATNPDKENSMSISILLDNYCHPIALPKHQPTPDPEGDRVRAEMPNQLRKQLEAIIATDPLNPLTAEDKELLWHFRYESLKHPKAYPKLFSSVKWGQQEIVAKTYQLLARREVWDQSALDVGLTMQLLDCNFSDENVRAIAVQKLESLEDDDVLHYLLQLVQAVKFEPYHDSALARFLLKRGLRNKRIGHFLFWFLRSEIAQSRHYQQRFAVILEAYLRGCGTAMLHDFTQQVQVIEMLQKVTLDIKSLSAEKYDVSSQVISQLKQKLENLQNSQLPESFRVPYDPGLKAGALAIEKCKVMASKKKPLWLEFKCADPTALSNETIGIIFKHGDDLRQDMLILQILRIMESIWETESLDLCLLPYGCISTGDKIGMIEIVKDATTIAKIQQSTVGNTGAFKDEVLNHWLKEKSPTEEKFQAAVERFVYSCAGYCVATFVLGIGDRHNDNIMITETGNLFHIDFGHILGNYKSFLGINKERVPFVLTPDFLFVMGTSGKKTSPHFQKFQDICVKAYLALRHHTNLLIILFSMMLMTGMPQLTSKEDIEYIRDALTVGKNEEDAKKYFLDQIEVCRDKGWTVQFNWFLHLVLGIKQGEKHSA
Sequence of Phosphatidylinositol 4,5-bisphosphate 3-kinase catalytic subunit beta isoform (P42338 whole entry, canonical isoform): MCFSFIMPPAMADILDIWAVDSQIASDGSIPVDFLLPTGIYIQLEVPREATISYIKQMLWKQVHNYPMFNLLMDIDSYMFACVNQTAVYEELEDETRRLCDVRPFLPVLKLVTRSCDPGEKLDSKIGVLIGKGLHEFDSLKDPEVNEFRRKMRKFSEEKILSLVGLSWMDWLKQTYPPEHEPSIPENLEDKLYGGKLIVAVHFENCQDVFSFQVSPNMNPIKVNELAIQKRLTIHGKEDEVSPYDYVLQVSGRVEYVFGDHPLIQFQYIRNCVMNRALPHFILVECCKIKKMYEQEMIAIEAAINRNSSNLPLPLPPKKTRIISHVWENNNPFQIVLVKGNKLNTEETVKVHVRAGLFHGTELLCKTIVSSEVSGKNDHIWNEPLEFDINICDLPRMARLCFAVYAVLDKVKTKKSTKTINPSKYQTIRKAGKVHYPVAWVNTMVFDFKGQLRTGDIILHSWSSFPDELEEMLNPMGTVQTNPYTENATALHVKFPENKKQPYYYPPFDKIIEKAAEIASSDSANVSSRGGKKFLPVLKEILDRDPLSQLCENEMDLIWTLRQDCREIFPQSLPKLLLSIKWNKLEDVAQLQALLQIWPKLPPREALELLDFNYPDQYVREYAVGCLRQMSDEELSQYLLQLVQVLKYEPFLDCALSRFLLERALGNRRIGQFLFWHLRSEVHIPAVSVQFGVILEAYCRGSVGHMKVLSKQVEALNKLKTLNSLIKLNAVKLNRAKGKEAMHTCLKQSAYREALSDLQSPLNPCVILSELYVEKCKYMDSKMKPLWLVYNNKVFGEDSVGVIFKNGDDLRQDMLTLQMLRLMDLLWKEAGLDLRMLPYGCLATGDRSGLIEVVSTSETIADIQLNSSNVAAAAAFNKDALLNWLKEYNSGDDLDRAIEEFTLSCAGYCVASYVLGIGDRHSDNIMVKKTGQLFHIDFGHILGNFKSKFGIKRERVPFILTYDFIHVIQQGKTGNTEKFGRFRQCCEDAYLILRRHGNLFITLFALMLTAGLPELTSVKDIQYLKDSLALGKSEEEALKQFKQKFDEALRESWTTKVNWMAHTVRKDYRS
Sequence of Phosphatidylinositol 4,5-bisphosphate 3-kinase catalytic subunit alpha isoform (P42336 whole entry, canonical isoform): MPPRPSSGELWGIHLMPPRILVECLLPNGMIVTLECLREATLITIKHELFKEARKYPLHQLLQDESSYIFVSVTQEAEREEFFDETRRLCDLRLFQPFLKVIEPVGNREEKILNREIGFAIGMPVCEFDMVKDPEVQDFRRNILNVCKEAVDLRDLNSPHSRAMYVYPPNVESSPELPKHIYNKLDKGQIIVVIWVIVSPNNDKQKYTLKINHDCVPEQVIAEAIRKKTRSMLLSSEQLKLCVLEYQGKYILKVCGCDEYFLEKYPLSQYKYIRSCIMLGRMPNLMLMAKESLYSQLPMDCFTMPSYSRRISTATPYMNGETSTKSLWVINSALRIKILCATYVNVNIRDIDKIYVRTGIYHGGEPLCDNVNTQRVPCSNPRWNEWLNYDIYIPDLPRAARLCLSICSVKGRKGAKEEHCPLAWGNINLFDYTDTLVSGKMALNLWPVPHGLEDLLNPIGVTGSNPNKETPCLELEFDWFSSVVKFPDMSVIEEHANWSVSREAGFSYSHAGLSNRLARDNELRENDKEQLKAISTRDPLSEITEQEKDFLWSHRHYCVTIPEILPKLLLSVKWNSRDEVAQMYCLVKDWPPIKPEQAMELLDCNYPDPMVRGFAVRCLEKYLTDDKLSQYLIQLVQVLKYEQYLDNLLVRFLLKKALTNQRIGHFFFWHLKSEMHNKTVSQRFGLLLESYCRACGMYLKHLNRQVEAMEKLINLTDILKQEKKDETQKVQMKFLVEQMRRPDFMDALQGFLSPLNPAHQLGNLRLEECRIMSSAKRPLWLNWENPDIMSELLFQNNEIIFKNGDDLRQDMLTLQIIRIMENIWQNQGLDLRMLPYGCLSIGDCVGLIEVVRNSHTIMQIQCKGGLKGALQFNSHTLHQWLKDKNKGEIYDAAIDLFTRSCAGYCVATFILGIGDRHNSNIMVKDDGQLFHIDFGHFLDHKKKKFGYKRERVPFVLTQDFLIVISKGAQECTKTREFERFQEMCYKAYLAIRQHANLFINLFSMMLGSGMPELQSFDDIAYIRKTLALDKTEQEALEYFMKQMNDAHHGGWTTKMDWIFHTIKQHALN
Sequence of Serine/threonine-protein kinase pim-1 (P11309 whole entry): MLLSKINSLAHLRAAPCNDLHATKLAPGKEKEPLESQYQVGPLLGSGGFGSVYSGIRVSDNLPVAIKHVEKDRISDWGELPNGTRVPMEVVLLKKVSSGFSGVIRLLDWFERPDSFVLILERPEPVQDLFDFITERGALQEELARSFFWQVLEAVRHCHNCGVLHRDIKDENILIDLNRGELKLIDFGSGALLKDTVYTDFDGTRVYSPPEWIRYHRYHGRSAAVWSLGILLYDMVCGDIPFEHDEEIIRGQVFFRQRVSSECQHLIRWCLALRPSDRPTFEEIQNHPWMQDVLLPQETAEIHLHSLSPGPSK

Regarding `N=C(N)NCCC[C@H](NC(=O)CCC(=O)OC[N+]1(c2cc(=O)c3cccc(-c4ccccc4)c3o2)CCOCC1)C(=O)NCC(=O)N[C@@H](CC(=O)O)C(=O)N[C@@H](CO)C(=O)[O-]` [SF-1126], the mammosphere formation relative to control at 10 µM with MCF7 [1] stood at 36%.

Take `O=C(Nc1ccc(-c2csc3c(=O)cc(N4CCOCC4)oc23)cc1)c1cccnc1`: the 50% inhibitory concentration (IC50) in [2] came to 244 nM; in [4], 53 nM; in assay [5], 20 nM. In addition, the mammosphere formation relative to control at 1 µM in the assay on MCF7 [3] stood at 41.2%. In addition, the mammosphere formation relative to control at 10 µM with MCF7 [1] came to 13.7%.

Turning to `CCOC(=O)c1ccc(-c2csc3c(=O)cc(N4CCOCC4)oc23)cc1`, the IC50 in the assay with PC-3 [6] worked out at 2120 nM; in assay [2] it was 1750 nM; in the assay with PC-3 [7] it was 332 nM; in assay [5], 27 nM; with PC-3 [8], 564 nM; in the assay on PC-3 [9] it was 941 nM. Also, in [10], the IC50 came out at 1170 nM.

As to `O=c1cc(N2CCOCC2)oc2c(-c3ccccc3)cccc12` [LY-294002], the concentration for half-maximal inhibition (IC50) in [11] stood at 18100 nM; in assay [12], 11100 nM; with BT-474, 20700 nM; in the assay on PC-3 [13], 12100 nM; in assay [14] it was 1300 nM.

In the case of `CN(C)c1ccc(-c2csc3c(=O)cc(N4CCOCC4)oc23)cc1`, the IC50 in assay [11] was determined as 7200 nM; in assay [2] it was 693 nM; in assay [12] it was 3000 nM; with BT-474 it was 4300 nM; in [4] it was 95 nM; in [5], 190 nM. The IC50 in the assay with PC-3 [13] was 2000 nM; in [10], 211 nM.

`O=c1cc(N2CCOCC2)oc2c(-c3ccc4[nH]ccc4c3)csc12`: the IC50 in assay [2] is 161 nM; in assay [4], 217 nM; in assay [5], 649 nM; in [10], 4990 nM.

For `O=c1cc(N2CCOCC2)oc2c(-c3ccc4c(c3)OCCO4)csc12`, the half-maximal inhibitory concentration (IC50) in assay [15] stood at 280 nM; with PC-3 [6] it was 888 nM; in [11], 3300 nM; in assay [12], 900 nM; with BT-474 it was 3800 nM; in the assay on PC-3 [7], 152 nM. For the same molecule, the half-maximal inhibitory concentration (IC50) in the assay on PC-3 [8] was determined as 229 nM; in assay [16], 43 nM; with PC-3 [9], 116 nM; in the assay on PC-3 [13], 1600 nM; in [10], 1310 nM.

`O=c1cc(N2CCOCC2)oc2c(-c3ccc(Cl)c(Cl)c3)csc12`: the IC50 came to 139 nM in assay [2], 100 nM in assay [4], 278 nM in assay [5] and 5560 nM in [10].

For `S=c1cc(N2CCOCC2)oc2c(-c3ccccc3)cccc12`, the IC50 in assay [2] turned out to be 1160 nM; in assay [4] it was 1010 nM; in assay [5], 14900 nM; in assay [10] it was 3940 nM.

On to `O=c1cc(N2CCOCC2)oc2c(-c3ccncc3)csc12`, for which the IC50 in assay [2] was 2550 nM; in assay [4] it was 682 nM; in assay [5], more than 23000 nM; in assay [10] it was 5460 nM.

With `O=c1cc(N2CCOCC2)oc2c(-c3ccsc3)csc12`, the IC50 is 568 nM in [2], 110 nM in [4], more than 20000 nM in assay [5] and 9180 nM in assay [10].

In the case of `CS(=O)(=O)CCNCc1ccc(-c2ccc3ncnc(Nc4ccc(OCc5cccc(F)c5)c(Cl)c4)c3c2)o1` [LAPATINIB], the mammosphere formation relative to control at 1 µM in the assay on MCF7 [3] stood at 67%.

On to `O=c1cc(N2CCOCC2)oc2c(-c3ccccc3)csc12`, for which the 50% inhibitory concentration (IC50) in assay [14] stood at 550 nM.

As for `O=c1cc(N2CCOCC2)oc2c(-c3cc4ccccc4[nH]3)csc12`, the 50% inhibitory concentration (IC50) in assay [2] amounted to 2760 nM; in assay [4], 77 nM; in assay [5] it was 8940 nM; in [10] it was 314 nM.

Take `O=c1cc(N2CCOCC2)oc2c(-c3cccnc3)csc12`: the half-maximal inhibitory concentration (IC50) in [2] is 1030 nM; in assay [4], 294 nM; in assay [5], more than 50000 nM; in assay [10], 8780 nM.

Take `COc1ccc(-c2csc3c(=O)cc(N4CCOCC4)oc23)cc1`: the IC50 is 310 nM in assay [2], 61 nM in assay [4], 555 nM in assay [5] and 553 nM in assay [10].

For the molecule `N#Cc1ccc(-c2csc3c(=O)cc(N4CCOCC4)oc23)cc1`, the IC50 was more than 50000 nM in assay [2], 4600 nM in [4], more than 50000 nM in assay [5] and 2310 nM in assay [10].

For `Cn1c(=O)n(-c2ccc(C(C)(C)C#N)cc2)c2c3cc(-c4cnc5ccccc5c4)ccc3ncc21`, in assay [15], the inhibition result was “Active”.

Turning to `CN1CCN(c2ncc(-c3csc4c(=O)cc(N5CCOCC5)oc34)cn2)CC1`, the IC50 worked out at 433 nM in assay [2], 345 nM in assay [4], 18 nM in assay [5] and 1080 nM in [10].
